Measured values as given in patent publication US10799456B2, “Multiple drug lipid nanoparticle composition and related methods for extended drug levels in blood and lymph tissue” (priority 2015, dated 2020).

Key:
[1] = DPH fluorescence anisotropy, lipid phase transition temperature; format: physicochemical
Description: To evaluate the change in membrane fluidity due to drug insertion into the lipid membrane, 0.1% 1,6-diphenyl-1,3,5-hexatriene (DPH) was used as an intra-membrane probe.^18,20 Briefly, to incorporate DPH into the lipid membrane, 2 μL of 2 mM DPH in tetrahydrofuran was added to the lipid nanoparticle suspension with or without drug. The final preparation was incubated at 60° C. (above the 55° C. DSPC phase transition temperature) for 30 min, then slowly cooled to room temperature over 15 min. […] A water-jacketed cuvette holder connected to a circulating water bath (PolyScience, model 1162, Niles, Ill.) was used to control the temperature within the cuvette, which was measured by a digital thermometer. The cuvette was allowed to equilibrate for 10 min before taking each temperature reading. The fluorescence intensities, both parallel and perpendicular to the emission light, were measured continuously with a F-4500 fluorescence spectrometer (Hitachi, Minato-ku, Tokyo, Japan) set at kex/em=360/430 nm; both excitation and emission slits were 5 nm. Fluorescence anisotropy response, r, was calculated by the equation: […]
The fluorescence anisotropy response versus temperature curve was generated by non-linear regression using SigmaPlot software (11.0 version, Systat Software, Inc., San Jose, Calif.). […]

[2] = Drug incorporation efficiency into lipid-drug nanoparticles (dialysis); format: physicochemical; details: for Incorporation efficiency (%): DSPC:DSPE-mPEG2000 8:2
Description: J Acquir Immune Defic Syndr. […] Journal of pharmaceutical sciences. […] The AAPS journal. […] Residual solvent was removed overnight by vacuum desiccation. The dried lipid-drug film was then rehydrated with 0.9% NaCl containing 20 mM sodium bicarbonate (pH 7.4). The lipid-drug samples were allowed to hydrate at 60° C. for 2 h. Then samples were sonicated (laboratory scale) or homogenized (preclinical scale) to achieve a homogenous suspension.
The incorporation efficiency was calculated as the ratio of the amount of incorporated drug over the total amount of drug loaded multiplied by 100%.

[3] = % Drug association to particles by assembly method; format: physicochemical
Excerpt: Select one or two drugs hydrophilic and water soluble (Class 2) drugs listed in Table 19 (for example, tenofovir and/or emtricitabine and/or lamivudine). • 3. Select the excipient combination (for example, 9 parts DSPC and 1 part PEG-DSPE). • 4. Prepare a single-phase miscible solvent that enables full solubilization of the chosen water-insoluble Class 1 drugs and water soluble Class 2 drugs plus the excipients from step 3. Examples include CHCl3:Methanol:Water (65:35:4); CHCl3:Ethanol:Water (65:35:4); CHCl3:Propanol:Water (65:35:4); and CHCl3:Hexanol:Water (65:35:4). • 5. The components in Steps 1, 2 and 3 are solubilized with the miscible solvent in step 4. • 6. The drugs (steps 1 and 2) as well as excipients (step 3) and the miscible solvent (step 4) are dried under reduced pressure with assistance of a combination of heat, reduced pressure and/or aerosolization to provide for uniformity and efficiency of drying. • 7. The dehydrated composition is heated above gel-to-liquid phase transition temperature of the excipient mixture (e.g., 50° C.). • 8. A buffered saline solution is prepared and the temperature is equilibrated to the same temperature as dehydrated composition. • 9. The buffered saline solution and dehydrated composition are gradually combined and maintained at the defined (e.g., 50° C.) for 3 hr. • 10. The resulting hydrated multi-drug lipid nanoparticles are size-reduced by sheering or forcing through small orifice or pressurized filter apparatus while maintaining at the defined temperature (in liquid phase of lipidic excipients).

[4] = Tables 20 and 21; cited from earlier work
[5] = Particle size by photon correlation spectroscopy; format: physicochemical
Description: The mean particle size of lipid-drug nanoparticles and liposome control was determined by photon correlation spectroscopy (PCS) using a NICOMP™ 380ZLS instrument (NICOMP Particle Sizing Systems, Santa Barbara, Calif.). […] Samples were diluted with the same buffer to an identical final volume to analyze concentration effects. The light scattering data were analyzed based on intensity-weight NICOMP size distribution and expressed as a mean±SD.
Briefly, lipids and protease inhibitors were dissolved in chloroform:ethanol (3:1 v/v) and PMPA was added from a stock solution of 30 mg/ml in aqueous 150 mM NaHCO3. Solvent was removed by rotary evaporation and vacuum desiccation. The dry film was rehydrated to 200 mM lipid in 0.4% NaCl with 20 mM NaHCO3 buffer at 60° C. Particle size was reduced at 60° C. by bath sonication (laboratory scale) or high-pressure homogenization using an Emulsiflex-05 (Avestin, Ottawa, Canada) (clinical scale). LNPs were maintained at 60° C. to anneal for 30 min prior to cooling and stored at 4° C. Particle size was determined by photon correlation spectroscopy using a NICOMP 380 ZLS (Particle Sizing Systems, Santa Barbara, Calif.).

[6] = Octanol-buffer distribution coefficient (shake-flask); format: physicochemical; details: room temperature
Description: The octanol-buffer drug distribution coefficient at room temperature was determined by a small-scale, shake-flask method described by Dittert L W, et al. Phase Solubility Technique in Studying the Formation of Complex Salts of Triamterene. Journal of pharmaceutical sciences. […] Briefly, phosphate-buffered saline (PBS) at pH 3, 5, and 7.4 was used as the aqueous phase. […] The mixture was centrifuged at 14,000 rpm (18,078 g) (Beckman Coulter™ Microfuge® 18 centrifuge, Beckman Coulter Inc., Brea, Calif.) to separate octanol and the aqueous phase. The drug concentration in the two phases was determined with high-performance liquid chromatography tandem mass spectrometry (HPLC/MS/MS). The distribution coefficient was calculated as the ratio of the drug concentration in the octanol phase to the drug concentration in the aqueous phase. Triplicate samples were used at each pH.

Darunavir [Darunavir (DRV)]
reduction of TC ([1]; lipid-to-drug 8:1, vs control LNPs): 1.6 °C | phase transition temperature (TC) ([1]; lipid-to-drug molar ratio 8:1): 53.3 °C | Incorporation efficiency (%) ([2]; lipid:drug 5:1 mol/mol): 88.1 ± 3.8% | Incorporation efficiency (%) ([2]; lipid:drug 5:1 mol/mol, listed as DRV): 88.1% | Incorporation efficiency (%) ([2]; lipid:drug 8:1 mol/mol): 94.4 ± 2.8% | Incorporation efficiency (%) ([2]; lipid:drug 8:1 mol/mol, listed as DRV): 94.4% | Incorporation efficiency (%) ([2]; lipid:drug 20:1 mol/mol): 96.6 ± 4.8% | Incorporation efficiency (%) ([2]; lipid:drug 20:1 mol/mol, listed as DRV): 96.6% | drug incorporation efficiency ([2]; prepared at 0.5 mM lipid): 58% | drug incorporation efficiency ([2]; prepared at 5 mM lipid): 95% | % Drug Association to Particles, LNPs from mixture of dual solvent method [3]: 97% | Hydrophobicity (Log P) [4]: 1.8 | Particle size (nm) ([5]; lipid:drug 5:1 mol/mol): 33.6 ± 3.1 nm | Particle size (nm) ([5]; lipid:drug 8:1 mol/mol): 35.6 ± 3.9 nm | Particle size (nm) ([5]; lipid:drug 20:1 mol/mol): 35.6 ± 3.7 nm | Log D (measured) ([6]; pH 3, octanol/PBS): 2.98 | Log D (measured) ([6]; pH 5, octanol/PBS): 2.80 | Log D (measured) ([6]; pH 7.4, octanol/PBS): 2.84
